# Measurements as given in article PMC6572064, “Discovery of 2-(1-(3-(4-Chloroxyphenyl)-3-oxo- propyl)pyrrolidine-3-yl)-1H-benzo[d]imidazole-4-carboxamide: A Potent Poly(ADP-ribose) Polymerase (PARP) Inhibitor for Treatment of Cancer” (Molecules, 2019).
# Read-outs that look alike come from different tables or passages of the source.
# Legend:
# PARP-1 = molecular target: T1, PARP-1 (Homo sapiens, UniProt P09874); experiment: PARP-1 inhibition assay (PARP-1 Chemiluminescent Assay Kit, BPS Bioscience); type: biochemical; settings: for inhibition at 0.01 µM: 10 nM compound
# T1 construct: purchased BPS Bioscience 80569
# Experimental: (§1) The PARP-1 and PARP-2 inhibition assays were performed in outsourcing, by a CRO company, Shanghai Medicilon Inc. (Shanghai, China). […] Briefly, PARP-1 or PARP-2 biotinylated substrate was incubated with compounds or solvent control at varying concentrations and an assay buffer containing the PARP-1 or PARP-2 enzyme.
# PARP-2 = molecular target: T2, PARP-2 (Homo sapiens, UniProt Q9UGN5); experiment: PARP-2 inhibition assay (PARP-2 Chemiluminescent Assay Kit, BPS Bioscience); type: biochemical; settings: for inhibition at 0.01 µM: 10 nM compound
# T2 construct: purchased BPS Bioscience 80552
# Experimental: as §1
# [1] = system: MDA-MB-436 (a BRCA-1-mutated breast cancer cell line); experiment: Cell proliferation assay, three-day, CellTiter-Glo, MDA-MB-436; type: cell-based; settings: for inhibition at 0.00508 µM / inhibition at 0.0152 µM / inhibition at 0.0457 µM / inhibition at 0.41 µM / inhibition at 1.23 µM / inhibition at 3.7 µM / inhibition at 11.11 µM / inhibition at 33.33 µM / inhibition at 100 µM / IC50: Homo sapiens; for inhibition at 0.00508 µM: MDA-MB-436, MDA-MB-436, Conc. 0.00508 uM; for inhibition at 0.0152 µM: MDA-MB-436, MDA-MB-436, Conc. 0.0152 uM; for inhibition at 0.0457 µM: MDA-MB-436, MDA-MB-436, Conc. 0.0457 uM; for inhibition at 0.41 µM: MDA-MB-436, MDA-MB-436, Conc. 0.41 uM; for inhibition at 1.23 µM: MDA-MB-436, MDA-MB-436, Conc. 1.23 uM; for inhibition at 3.7 µM: MDA-MB-436, MDA-MB-436, Conc. 3.70 uM; for inhibition at 11.11 µM: MDA-MB-436, MDA-MB-436, Conc. 11.11 uM; for inhibition at 33.33 µM: MDA-MB-436, MDA-MB-436, Conc. 33.33 uM; for inhibition at 100 µM: MDA-MB-436, MDA-MB-436, Conc. 100.00 uM
# Method in brief: (§2)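 Cells seeded overnight in 384-well plates, then exposed to compounds (DMSO stock diluted in medium) for 72 h at 37 °C, 5% CO2. Viability read as CellTiter-Glo luminescence after 60 min at room temperature.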
# [2] = system: CAPAN-1 (a BRCA-2-mutated pancreatic cancer cell line); experiment: Cell proliferation assay, three-day, CellTiter-Glo, CAPAN-1; type: cell-based; settings: for IC50 / inhibition at 0.00508 µM / inhibition at 0.0152 µM / inhibition at 0.0457 µM / inhibition at […] / inhibition at 0.41 µM / inhibition at 1.23 µM / inhibition at 3.7 µM / inhibition at 11.11 µM / inhibition at 33.33 µM / inhibition at 100 µM: Homo sapiens; for inhibition at 0.00508 µM: CAPAN-1, 0.00508 uM; for inhibition at 0.0152 µM: CAPAN-1, 0.0152 uM; for inhibition at 0.0457 µM: CAPAN-1, 0.0457 uM; for inhibition at […]: CAPAN-1, 0.14 uM; for inhibition at 0.41 µM: CAPAN-1, 0.41 uM; for inhibition at 1.23 µM: CAPAN-1, 1.23 uM; for inhibition at 3.7 µM: CAPAN-1, 3.70 uM; for inhibition at 11.11 µM: CAPAN-1, 11.11 uM; for inhibition at 33.33 µM: CAPAN-1, 33.33 uM; for inhibition at 100 µM: CAPAN-1, 100.00 uM
# Method in brief: as §2
# T2 sequence (Q9UGN5 whole entry): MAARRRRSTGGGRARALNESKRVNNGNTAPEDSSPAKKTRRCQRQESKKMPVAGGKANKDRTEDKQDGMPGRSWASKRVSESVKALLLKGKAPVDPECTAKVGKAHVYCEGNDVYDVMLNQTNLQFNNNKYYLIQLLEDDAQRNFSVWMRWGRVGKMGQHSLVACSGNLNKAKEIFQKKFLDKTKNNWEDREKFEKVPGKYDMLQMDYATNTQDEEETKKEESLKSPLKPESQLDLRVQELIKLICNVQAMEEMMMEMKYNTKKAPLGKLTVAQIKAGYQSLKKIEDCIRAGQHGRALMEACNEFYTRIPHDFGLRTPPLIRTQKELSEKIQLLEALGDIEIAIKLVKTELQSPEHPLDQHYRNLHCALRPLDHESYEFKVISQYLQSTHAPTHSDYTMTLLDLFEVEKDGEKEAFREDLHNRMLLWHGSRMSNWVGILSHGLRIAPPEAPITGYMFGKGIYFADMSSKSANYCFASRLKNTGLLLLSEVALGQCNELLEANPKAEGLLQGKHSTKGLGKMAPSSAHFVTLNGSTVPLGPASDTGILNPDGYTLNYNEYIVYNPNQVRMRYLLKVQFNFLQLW
# T1 sequence (P09874 whole entry): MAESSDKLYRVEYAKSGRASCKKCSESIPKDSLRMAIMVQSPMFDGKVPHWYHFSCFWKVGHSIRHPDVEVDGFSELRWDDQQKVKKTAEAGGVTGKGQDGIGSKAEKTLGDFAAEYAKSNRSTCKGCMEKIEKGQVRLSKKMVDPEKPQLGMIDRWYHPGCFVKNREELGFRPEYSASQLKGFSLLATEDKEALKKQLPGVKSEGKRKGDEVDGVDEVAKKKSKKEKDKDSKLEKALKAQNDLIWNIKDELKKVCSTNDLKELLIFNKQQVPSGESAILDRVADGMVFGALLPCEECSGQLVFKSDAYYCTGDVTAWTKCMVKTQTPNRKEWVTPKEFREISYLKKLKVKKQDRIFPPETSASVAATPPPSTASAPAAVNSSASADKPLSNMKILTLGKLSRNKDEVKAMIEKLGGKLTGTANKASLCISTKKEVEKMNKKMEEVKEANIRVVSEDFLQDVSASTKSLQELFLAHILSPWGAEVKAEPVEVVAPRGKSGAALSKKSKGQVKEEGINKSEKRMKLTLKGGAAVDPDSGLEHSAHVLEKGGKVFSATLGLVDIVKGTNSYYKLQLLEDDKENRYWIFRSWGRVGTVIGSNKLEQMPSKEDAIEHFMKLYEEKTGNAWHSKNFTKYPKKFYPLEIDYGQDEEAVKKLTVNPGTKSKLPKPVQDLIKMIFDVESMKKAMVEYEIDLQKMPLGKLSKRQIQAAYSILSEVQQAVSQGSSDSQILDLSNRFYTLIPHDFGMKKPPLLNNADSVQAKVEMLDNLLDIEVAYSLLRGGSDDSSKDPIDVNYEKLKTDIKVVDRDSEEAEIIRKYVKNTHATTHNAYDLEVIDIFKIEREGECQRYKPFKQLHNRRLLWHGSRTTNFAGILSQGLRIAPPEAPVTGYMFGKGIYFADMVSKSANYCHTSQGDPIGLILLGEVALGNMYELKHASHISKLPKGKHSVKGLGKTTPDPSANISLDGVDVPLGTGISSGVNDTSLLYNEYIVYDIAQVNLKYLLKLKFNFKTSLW
structure (smiles),measurement,setting,value
"COc1ccc(C(=O)CCN2CCC(c3nc4c(C(N)=O)cccc4[nH]3)C2)cc1 (centres unmarked) [Compound 5ci, 2-(1-(3-(4-Methoxyphenyl)-3-oxopropyl)pyrrolidin-3-yl)-1H-benzo[d]imidazole-4-carboxamide]",inhibition at 0.01 µM,"PARP-1; supplement sheet, read-out: 10 nM inhibition% PAPR-1",59.2%
same,inhibition at 0.01 µM,PARP-1; read-out: PARP-1 Inhibition % (10 nM),59.2%
same,IC50,PARP-1; read-out: PARP-1 IC50,0.0059 µM
same,IC50,"PARP-1; supplement sheet, read-out: IC50 PAPR-1",0.00586 µM
same,inhibition at 0.01 µM,"PARP-2; supplement sheet, read-out: 10 nM inhibition% PAPR-2",62.5%
same,inhibition at 0.01 µM,PARP-2; read-out: PARP-2 Inhibition % (10 nM),62.5%
same,IC50,PARP-2; read-out: PARP-2 IC50,0.0045 µM
same,IC50,"PARP-2; supplement sheet, read-out: IC50 PAPR-2",0.00452 µM
same,inhibition at 0.00508 µM,"[1]; replicate 1, read-out: Inh % 1",-3.7%
same,inhibition at 0.00508 µM,"[1]; replicate 2, read-out: Inh % 2",-7.9%
same,inhibition at 0.0152 µM,"[1]; replicate 1, read-out: Inh % 1",-0.252%
same,inhibition at 0.0152 µM,"[1]; replicate 2, read-out: Inh % 2",-7.1%
same,inhibition at 0.0457 µM,"[1]; replicate 1, read-out: Inh % 1",-8.5%
same,inhibition at 0.0457 µM,"[1]; replicate 2, read-out: Inh % 2",-13.5%
same,inhibition at 0.41 µM,"[1]; replicate 1, read-out: Inh % 1",-19.2%
same,inhibition at 0.41 µM,"[1]; replicate 2, read-out: Inh % 2",-15.9%
same,inhibition at 1.23 µM,"[1]; replicate 1, read-out: Inh % 1",-9.5%
same,inhibition at 1.23 µM,"[1]; replicate 2, read-out: Inh % 2",-17.4%
same,inhibition at 3.7 µM,"[1]; replicate 1, read-out: Inh % 1",-10.7%
same,inhibition at 3.7 µM,"[1]; replicate 2, read-out: Inh % 2",-17.4%
same,inhibition at 11.11 µM,"[1]; replicate 1, read-out: Inh % 1",-13.6%
same,inhibition at 11.11 µM,"[1]; replicate 2, read-out: Inh % 2",-15.6%
same,inhibition at 33.33 µM,"[1]; replicate 1, read-out: Inh % 1",7.8%
same,inhibition at 33.33 µM,"[1]; replicate 2, read-out: Inh % 2",1.7%
same,inhibition at 100 µM,"[1]; replicate 1, read-out: Inh % 1",89.3%
same,inhibition at 100 µM,"[1]; replicate 2, read-out: Inh % 2",86.7%
same,IC50,"[1]; MDA-MB-436, 72 h, CellTiter-Glo, read-out: MDA-MB-436 IC50",38.6 µM
same,IC50,"[1]; MDA-MB-436, 72 h, supplement Summary sheet, read-out: IC50",38.6 µM
same,IC50,"[1]; MDA-MB-436, curve fit list, no unit in the cell, concentration in uM, read-out: IC50",38.6 µM
same,LogIC50,"[1]; MDA-MB-436, curve fit on Log (uM) concentrations",~ 1.587
same,Bottom,"[1]; MDA-MB-436, curve fit parameter (Inh %)",-11.35
same,Top,"[1]; MDA-MB-436, curve fit parameter (Inh %), '= 100.0' is a constrained value",88
same,LogIC50,"[2]; CAPAN-1, curve-fit output, Log (uM)",1.682
same,IC50,"[2]; CAPAN-1, 72 h, CellTiter-Glo, read-out: CAPAN-1 IC50",48.1 µM
same,inhibition at 0.00508 µM,"[2]; replicate 1, read-out: Inh % 1",3.5%
same,inhibition at 0.00508 µM,"[2]; replicate 2, read-out: Inh % 2",-8.1%
same,inhibition at 0.0152 µM,"[2]; replicate 1, read-out: Inh % 1",3.7%
same,inhibition at 0.0152 µM,"[2]; replicate 2, read-out: Inh % 2",5.2%
same,inhibition at 0.0457 µM,"[2]; replicate 1, read-out: Inh % 1",2.3%
same,inhibition at 0.0457 µM,"[2]; replicate 2, read-out: Inh % 2",-3.2%
same,inhibition at […],"[2]; replicate 1, read-out: Inh % 1",7.9%
same,inhibition at […],"[2]; replicate 2, read-out: Inh % 2",5.4%
same,inhibition at 0.41 µM,"[2]; replicate 1, read-out: Inh % 1",9.3%
same,inhibition at 0.41 µM,"[2]; replicate 2, read-out: Inh % 2",-5.7%
same,inhibition at 1.23 µM,"[2]; replicate 1, read-out: Inh % 1",-11.8%
same,inhibition at 1.23 µM,"[2]; replicate 2, read-out: Inh % 2",-10.7%
same,inhibition at 3.7 µM,"[2]; replicate 1, read-out: Inh % 1",0.241%
same,inhibition at 3.7 µM,"[2]; replicate 2, read-out: Inh % 2",-0.2%
same,inhibition at 11.11 µM,"[2]; replicate 1, read-out: Inh % 1",6%
same,inhibition at 11.11 µM,"[2]; replicate 2, read-out: Inh % 2",-3.5%
same,inhibition at 33.33 µM,"[2]; replicate 1, read-out: Inh % 1",27.1%
same,inhibition at 33.33 µM,"[2]; replicate 2, read-out: Inh % 2",18.7%
same,inhibition at 100 µM,"[2]; replicate 1, read-out: Inh % 1",85.7%
same,inhibition at 100 µM,"[2]; replicate 2, read-out: Inh % 2",75.3%
same,IC50,"[2]; CAPAN-1, 72 h, supplement Summary sheet, read-out: IC50",48.1 µM
same,IC50,"[2]; CAPAN-1, curve-fit output, concentrations in uM, read-out: IC50",48.1 µM
